Source: patent publication US20180155757A1, “IDENTIFICATION OF BACTERIA THAT ARE RESISTANT TO CARBAPENEMS BY MEMBRANE IMPERVIOUSNESS” (BIOMÉRIEUX, priority 2015, published 2018)
Like-named read-outs stand apart in the source and are kept apart here.

What was measured:
Assay in all cases: Etest MIC of indicator carbapenems on MH II agar without/with PMBN
Assay type in all cases: cell-based
[1] = test system: E. cloacae 9402034
Method: (§1) The determinations of antibiotic MIC were carried out on solid culture media with the Etest® method. To do this, Etest® strips (bioMérieux, France) were used: • Etest® Imipenem IM 32, and • Etest® Ertapenem ETP 32, and also solid culture media, differing from one another by virtue of their non-inhibitory concentrations of PMBN.
(§2) These solid culture media are prepared in Petri dishes (0=145 mm; V=50 ml) on a base of MH II Agar (Becton Dickinson®, United States), more or less supplemented with PMBN. The PMBN concentrations range from 0 up to concentrations equivalent to one fifth of the MIC of PMBN (⅕ MICPMBN).
(§3) Using a swab and the Retro C80™ rota-plater (bioMérieux, France), the culture media were inoculated with the bacteria, originating from an inoculum of 0.5 McFarland, prepared in 0.85% NaCl solution from colonies subcultured the day before on MH II agar.
(§4) The various Etest® strips are then deposited on the surface of the culture media. After 16 to 20 hours of incubation at 35° C., the MICS were read.
(§5) To do this, imipenem and ertapenem were used as indicator carbapenems. Non-inhibitory concentrations of PMBN, equivalent to concentrations of one tenth ( 1/10), one eighth (⅛) and one fifth (⅕) of the MIC of PMBN, were applied.
(§6) In the light of the MICPMBN values previously identified, very predominantly much higher than 300 μg/ml, the following standard concentrations were retained and applied to the bacterial strains to be tested: 50, 100, 150, 200 and 300 μg/ml.
(§7) By way of indicator carbapenems according to the invention, in addition to imipenem (IM) and ertapenem (ETP), meropenem (MP) was also tested. Like the other two antibiotics, meropenem was used in the form of Etest® strips (Etest® Meropenem MP 32 from the company bioMérieux, France).
(§8) The methods used to prepare the new culture media and to carry out the antibiotic-sensitivity tests are identical to those described above.

[2] = test system: E. coli 1204043
Method: as §1, §2, §3, §4, §5, §6, §7, §8

[3] = test system: Enterobacter aerogenes EA 5 (porin−); details: Klebsiella aerogenes
Procedure, shortened: (§9)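 MH II agar ± PMBN (0 to ⅕ MICPMBN, non-inhibitory), swabbed with 0.5 McFarland inoculum; IM 32, ETP 32, MP 32 Etest strips applied; read at 16–20 h, 35° C.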

[4] = test system: E. cloacae 1008074 (VIM producer)
Procedure, shortened: as §9

[5] = test system: Enterobacter aerogenes EA 27 (porin−); details: Klebsiella aerogenes, read-out: MIC
Procedure, shortened: as §9

[6] = test system: K. pneumoniae 1108003 (KPC-3 producer)
Procedure, shortened: as §9

`C[C@@H](O)[C@H]1C(=O)N2C(C(=O)O)=C(SCCN=CN)C[C@H]12` [IM, imipenem] was tested, and the MIC ([1]; E. cloacae 9402034 (membrane impermeability), [PMBN] 0, Table 4a) was > 32 µg/mL, the MIC ([1]; E. cloacae 9402034 (membrane impermeability), [PMBN] 100, Table 4a) was 8 µg/mL and the MIC ([1]; E. cloacae 9402034 (membrane impermeability), [PMBN] 200, Table 4a) was 12 µg/mL. The MIC ([1]; E. cloacae 9402034 (membrane impermeability), [PMBN] 300, Table 4a) was 12 µg/mL, the MIC ([1]; E. cloacae 9402034, [PMBN] 0, Table 3) was 16 µg/mL and the MIC ([1]; E. cloacae 9402034, [PMBN] MIC/5) was 8 µg/mL. For the same compound, the MIC ([1]; E. cloacae 9402034, [PMBN] MIC/8) was 8 µg/mL, the MIC ([1]; E. cloacae 9402034, [PMBN] MIC/10) was 8 µg/mL and the MIC ([2]; E. coli 1204043 (membrane impermeability), [PMBN] 0, Table 4a, in µg/mL) was >32. For the same compound, the MIC ([2]; E. coli 1204043 (membrane impermeability), [PMBN] 100, Table 4a, in µg/mL) was 6-8, the MIC ([2]; E. coli 1204043 (membrane impermeability), [PMBN] 200, Table 4a, in µg/mL) was 3-6 and the MIC ([2]; E. coli 1204043 (membrane impermeability), [PMBN] 300, Table 4a, in µg/mL) was 3. For the same compound, the MIC ([2]; E. coli 1204043, [PMBN] 0, Table 3, in µg/mL) was 8, the MIC ([2]; E. coli 1204043, [PMBN] MIC/5, in µg/mL) was 1 and the MIC ([2]; E. coli 1204043, [PMBN] MIC/8, in µg/mL) was 1. For the same compound, the MIC ([2]; E. coli 1204043, [PMBN] MIC/10, in µg/mL) was 2, the MIC ([2]; Escherichia coli, 1204043, E. coli 1204043 (porin−), [PMBN] 0, Table 4, read-out: MIC) was 24 µg/mL and the MIC ([2]; Escherichia coli, 1204043, E. coli 1204043 (porin−), [PMBN] 150 μg/ml, Table 4, read-out: MIC) was 1 µg/mL. The MIC ([2]; Escherichia coli, 1204043, E. coli 1204043 (porin−), [PMBN] 200 μg/ml, Table 4, read-out: MIC) was 0.25 µg/mL, the MIC ([3]; E. aerogenes EA 5 (porin−), [PMBN] 0, Table 4) was 6 µg/mL and the MIC ([3]; E. aerogenes EA 5 (porin−), [PMBN] 50 μg/ml) was 4 µg/mL. It also gave an MIC ([3]; E. aerogenes EA 5 (porin−), [PMBN] 100 μg/ml) of 4 µg/mL, an MIC ([3]; E. aerogenes EA 5 (porin−), [PMBN] 150 μg/ml) of 4 µg/mL and an MIC ([3]; E. aerogenes EA 5 (porin−), [PMBN] 200 μg/ml) of 3 µg/mL. It also gave an MIC ([3]; EA 5 (porin−), [PMBN] 0, Table 2) of 4 µg/mL, an MIC ([3]; EA 5 (porin−), [PMBN] MIC/5) of 2 µg/mL and an MIC ([3]; EA 5 (porin−), [PMBN] MIC/8) of 2 µg/mL. It also gave an MIC ([3]; EA 5 (porin−), [PMBN] MIC/10) of 2 µg/mL, an MIC ([4]; [PMBN] 0, Table 4a) of 3 µg/mL and an MIC ([4]; [PMBN] 100, Table 4a) of 3 µg/mL. For the same compound, the MIC ([4]; [PMBN] 200, Table 4a) was 8 µg/mL, the MIC ([4]; [PMBN] 300, Table 4a) was 6 µg/mL and the MIC ([5]; E. aerogenes EA 27 (porin−), [PMBN] 0, Table 4) was 12 µg/mL. The MIC ([5]; E. aerogenes EA 27 (porin−), [PMBN] 50 μg/ml) was 6 µg/mL, the MIC ([5]; E. aerogenes EA 27 (porin−), [PMBN] 100 μg/ml) was 3 µg/mL and the MIC ([5]; E. aerogenes EA 27 (porin−), [PMBN] 150 μg/ml) was 3 µg/mL. For the same compound, the MIC ([5]; E. aerogenes EA 27 (porin−), [PMBN] 200 μg/ml) was 3 µg/mL, the MIC ([5]; EA 27 (porin−), [PMBN] 0, Table 2) was 8 µg/mL and the MIC ([5]; EA 27 (porin−), [PMBN] MIC/5) was 0.03 µg/mL. For the same compound, the MIC ([5]; EA 27 (porin−), [PMBN] MIC/8) was 0.06 µg/mL, the MIC ([5]; EA 27 (porin−), [PMBN] MIC/10) was 8 µg/mL and the MIC ([6]; [PMBN] 0, Table 4a) was 6 µg/mL. The MIC ([6]; [PMBN] 100, Table 4a) was 8 µg/mL, the MIC ([6]; [PMBN] 200, Table 4a) was 12 µg/mL and the MIC ([6]; [PMBN] 300, Table 4a) was 12 µg/mL.
